From publication PMC11187126, “Structure and dynamics of the pyroglutamylated RF-amide peptide QRFP receptor GPR103” (Nature Communications, 2024) come the findings set out here.

No end group written: not given here.

The target in the experiment is T1, GPR103 C98^2.57A (Homo sapiens, UniProt Q96P65, C98A).
T1 construct: we used human full-length QRFPR-encoding plasmids; expressed in transfected cells; host or cells: HEK293 cells, pCAGGS vector
T1 sequence (Q96P65 1-431 C98A): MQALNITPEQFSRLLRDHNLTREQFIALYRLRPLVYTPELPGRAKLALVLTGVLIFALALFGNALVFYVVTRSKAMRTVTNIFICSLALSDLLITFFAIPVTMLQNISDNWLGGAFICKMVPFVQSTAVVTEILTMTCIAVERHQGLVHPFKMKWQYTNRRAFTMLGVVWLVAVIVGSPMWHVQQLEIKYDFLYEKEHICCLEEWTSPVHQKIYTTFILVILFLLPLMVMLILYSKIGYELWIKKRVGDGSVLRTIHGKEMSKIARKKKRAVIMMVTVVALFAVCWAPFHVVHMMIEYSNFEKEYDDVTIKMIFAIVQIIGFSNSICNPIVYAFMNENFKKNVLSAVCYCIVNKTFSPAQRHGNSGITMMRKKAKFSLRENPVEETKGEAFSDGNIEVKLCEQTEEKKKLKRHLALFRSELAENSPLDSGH
The experiment can be described thus: TGFα shedding assay; Exp. level WT (1:50). Format: cell-based. On the procedure:
For the TGFα shedding assay and the flow cytometry analysis, we used human full-length QRFPR-encoding plasmids. Specifically, GPR103 was N-terminally modified with an HA signal sequence followed by a FLAG epitope and then a flexible linker ([…]; the FLAG epitope is underlined) and inserted into the pCAGGS vector. Plasmid encoding GPR103 mutants were generated using Quickchange Site-Directed Mutagensis kit (Agilent).
The TGFα shedding assay was performed as described previously with minor modifications. Plasmid transfection was performed in a 6-well plate with a mixture of 500 ng (per well in a 6-well plate) AP-TGFα-encoding plasmid and 200 ng GPR103-encoding plasmid. After 1-day culture, the transfected cells were harvested by trypsinization, pelleted by centrifugation at 190 × g for 5 min, and washed once with 5 mM HEPES (pH 7.4)-containing Hank’s Balanced Salt Solution (HBSS). After centrifugation, the cells were resuspended in 8 mL of the HEPES-containing HBSS. The cell suspension was seeded in a 96-well culture plate (cell plate) at a volume of 90 μL (per well hereafter) and incubated in a 37 °C incubator with 5% CO2 for 30 min. […] After spinning the cell plates at 190 × g for 2 min, 80 μL of conditioned media was transferred to an empty 96-well plate (conditioned media (CM) plate). Then, 80 μL of AP reaction solution (10 mM p-nitrophenylphosphate (p-NPP), 120 mM Tris-HCl (pH 9.5), 40 mM NaCl, and 10 mM MgCl2) was dispensed into the cell plates and the CM plates. Absorbance at 405 nm of the plates was measured using a microplate reader (SpectraMax 340 PC384, Molecular Devices) before and after 1-h incubation at room temperature. Ligand-induced AP-TGFα release was calculated by subtracting spontaneous AP-TGFα release signal from ligand-induced AP-TGFα release signal. The AP-TGFα release signals were fitted to a four-parameter sigmoidal concentration–response curve, using the Prism 10 software (GraphPad Prism). For each replicate experiment, the pEC50 parameter (negative logarithmic values of EC50 values) of the individual GPR103 mutants were normalized to that of the wild-type GPR103 performed in parallel, and resulting ∆pEC50 values were used to denote ligand response activity of the mutants. […]
Exp. le vel: WT (1:5 0)Exp. le vel: WT (1:5 0)Exp. le vel: WT (1:5 0)Exp. le vel: WT (1:2 0)Exp. le vel: WT (1:2 0)Exp. le vel: WT (1:1 0) […]
L1 4N - t e r mA F2 5N - t e r mA I 2 6N - t e r mA Y 2 9N - t e r mA C 9 82 .5 7A T10 22 .6 1A Exp . l eve l: WT (1 :5)Exp . l evel : >WT (1 :1)Exp. le vel: WT (1:2 0)Exp. le vel: WT (1:2 0)Exp. le vel: WT (1:5 0)Exp . l eve l: WT (1 :1) […]
Exp. le vel: WT (1:1 0)Exp. le vel: WT (1:2 0) C 1 1 83 .2 5AExp. le vel: WT (1:5 0)Exp. le vel: WT (1:5 0)Exp. le vel: WT (1:2 0)Exp . l eve l: WT (1 :5) […]
Exp. le vel: WT (1:5 0)Exp. le vel: WT (1:1 0)Exp. le vel: WT (1:5 0) E203ECL2AExp . l evel : >WT (1 :1)Exp. le vel: WT (1:5 0)Exp. le vel: WT (1:5 0) […]
Exp . l eve l: WT (1 :1) F28Exp. le vel: WT (1:5 0) C 2 8 56 .4 7AExp. le vel: WT (1:2 0) WExp. le vel: WT (1:2 0) F28Exp. le vel: WT (1:5 0)Exp . l evel : >WT (1 :1) […]
Exp. le vel: WT (1:5 0)Exp. le vel: WT (1:5 0) C 3 2 77 .4 8AExp . l eve l: WT (1 :5)Exp . l evel : >WT (1 :1)Exp . l evel : >WT (1 :1) […]
Suppl eme nt ary Figure 1 | Mutational analysis of GPR103. […]
mutants. Data are presented as mean values ± SEM, normally n=3-5; dots), each performed in triplicate. b-d Cell-surface expression (b) and QRFP26-in-duced activation of GPR103 (c, d) were analyzed by the flow cytometry and the TGFα shedding assay, respectively. From the concentration–response curves (a), Emax (c) and ΔpEC50 (d) values relative to the wild type were calculated. Colors in the mutant bars indicate an expression level matching to that of titrated wild type. Statistical analyses were performed using the ordinary one-way ANOVA followed by Dunnett tests with the expression-matched […]

Take TSGPLGNLAEELNGYSRKKGGFSFRF-NH2 [QRFP26]: the Emax (mean) amounted to 86%. Moreover, where the note is “n = 3”, the midpoint of the response, the EC50, lay at 72.4 nM and the maximum response (Emax) amounted to 88.3 ± 3.6%.
